Results taken from US20230357253A1, “AGONISTS OF STIMULATOR OF INTERFERON GENES STING” (THE SCRIPPS RESEARCH INSTITUTE, priority 2020, published 2023).

Legend:
human STING protein = human STING protein (Homo sapiens (Human), UniProt Q86WV6); assay: WT STING binding assay (HTRF, competition with labeled 2′3′cGAMP); conditions: recombinant 6×His-tagged human STING, three hours at room temperature
Procedure: WT STING binding assay (Cisbio, Catalog #64BDSTGPEH). […] Upon proximity of the two dyes, the excitation of the donor by the flash lamp on the PHERAstar FSX plate reader triggers a Fluorescence Resonance Energy Transfer (FRET) towards the acceptor, which in turn fluoresces at 665 nm. To assess the ability of the synthetic small molecule STING ligands to bind to human STING, a competitive assay format was applied. A 10-point titration of each of the synthetic ligands in 5 uL were transferred into a 384 well plate, followed by 20 uL of assay buffer containing the 6×His-tagged human STING protein and labeled 2′3′cGAMP ligand and incubated for three hours at room temperature. The raw values obtained from the PHERAstar were used to calculate the reported IC50 values (the signal is inversely proportional to the binding of the synthetic ligand) through curve fitting in Genedata. The percent inhibition was calculated based upon the maximal amount of binding by synthetic compound versus the maximum binding of unlabeled 2′3′ cGAMP which was used as a control in each assay.

THP-1 Lucia ISG cells = assay: ISRE-luciferase assay (ISG-LUC activation); format: cell-based; conditions: Homo sapiens, THP1-Lucia ISG, 24 hours, luciferase reporter
Procedure: ISRE-luciferase assay. THP-1 Lucia ISG cells were resuspended in low-serum growth media (2% FBS) at a density of 5×10^5 cells/ml and treated with test article or vehicle (DMSO). 50 μL of cells were seeded into each well of a 384-well white greiner plates and incubated for 24 hours. To evaluate expression of the luciferase reporter, 30 μl of Quanti-luc (Invivogen) detection reagent was added to each well and luminescence was read using an Envision plate reader (Perkin Elmer) set with an integration time of 0.1 seconds. For each cell type, luminescence signals for test article samples were normalized to vehicle-treated samples and reported as relative light units (RLU).

Chain of human STING protein (Q86WV6 whole entry): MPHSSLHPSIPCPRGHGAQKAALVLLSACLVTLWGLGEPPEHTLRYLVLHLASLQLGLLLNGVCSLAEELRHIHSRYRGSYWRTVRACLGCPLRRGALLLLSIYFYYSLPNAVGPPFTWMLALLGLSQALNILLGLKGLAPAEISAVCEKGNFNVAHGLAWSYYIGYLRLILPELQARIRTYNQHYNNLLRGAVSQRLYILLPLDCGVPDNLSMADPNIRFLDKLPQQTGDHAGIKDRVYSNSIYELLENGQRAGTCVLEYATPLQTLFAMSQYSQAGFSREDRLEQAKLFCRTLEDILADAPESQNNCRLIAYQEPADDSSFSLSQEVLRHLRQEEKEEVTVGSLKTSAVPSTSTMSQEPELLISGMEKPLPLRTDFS

IC50 (human STING protein)	EC50 (THP-1 Lucia ISG cells)	SMILES
0.1 to 1 µM	0.05 to 0.5 µM	COC(=O)c1ccc(CCCc2cc(C(=O)O)c(NC(=O)c3ccc(-n4ccnc4)nn3)cc2F)cc1NC(=O)c1ccc(-n2ccnc2)nn1 [Compound 79]
0.01 to 0.1 µM	0.5 to 5 µM	COC(=O)c1nc(Cl)c(CCCc2cnc(C(=O)O)c(NC(=O)c3ccc(-n4ccnc4)nn3)c2)cc1NC(=O)c1ccc(-n2ccnc2)nn1 [Compound 80]
0.1 to 1 µM	> 5 µM	O=C(Nc1cc(CCCc2cnc(C(=O)O)c(NC(=O)c3ccc(-n4ccnc4)nn3)c2)c(F)cc1C(=O)O)c1ccc2nnnn2n1 [Compound 82]
0.1 to 1 µM	> 5 µM	O=C(Nc1cc(OCCCCOc2cnc(C(=O)O)c(NC(=O)c3ccc4nnnn4n3)c2)c(F)cc1C(=O)O)c1ccc(-n2ccnc2)nn1 [Compound 83]
0.1 to 1 µM	0.5 to 5 µM	COc1cc(NC(=O)c2ccc3nnnn3n2)c(C(=O)O)cc1CCCc1ccc(C(=O)O)c(NC(=O)c2ccc(-n3ccnc3)nn2)c1 [Compound 84]
0.1 to 1 µM	> 5 µM	COc1cc(C(=O)O)c(NC(=O)c2ccc3nnnn3n2)cc1CCCc1cnc(C(=O)O)c(NC(=O)c2ccc(-n3ccnc3)nn2)c1 [Compound 85]
0.01 to 0.1 µM	0.05 to 0.5 µM	COc1cc(C(=O)O)c(NC(=O)c2ccc3nnnn3n2)cc1CCCc1ccc(C(=O)O)c(NC(=O)c2ccc(-n3ccnc3)nn2)c1 [Compound 86]
0.01 to 0.1 µM	0.05 to 0.5 µM	O=C(Nc1cc(CCCc2cc(NC(=O)c3ccc4nnnn4n3)c(C(=O)O)nc2Cl)ccc1C(=O)O)c1ccc(-n2ccnc2)nn1 [Compound 87]
0.1 to 1 µM	0.5 to 5 µM	COC(=O)c1ccc(CCCc2cc(NC(=O)c3ccc4nnnn4n3)c(C(=O)O)cc2F)cc1NC(=O)c1ccc(-n2ccnc2)nn1 [Compound 88]
0.01 to 0.1 µM	0.05 to 0.5 µM	O=C(Nc1cc(CCCc2cc(NC(=O)c3ccc4nnnn4n3)c(C(=O)O)cc2F)ccc1C(=O)O)c1ccc(-n2ccnc2)nn1 [Compound 89]
0.1 to 1 µM	> 5 µM	COc1cc(C(=O)O)c(NC(=O)c2ccc3nnnn3n2)cc1OCCc1ccc(C(=O)O)c(NC(=O)c2ccc(-n3ccnc3)nn2)c1 [Compound 91]
0.01 to 0.1 µM	0.05 to 0.5 µM	O=C(Nc1cc(CCOc2cc(NC(=O)c3ccc4nnnn4n3)c(C(=O)O)cc2F)ccc1C(=O)O)c1ccc(-n2ccnc2)nn1 [Compound 92]
0.01 to 0.1 µM	0.05 to 0.5 µM	O=C(Nc1cc(CCCc2cc(C(=O)O)c(NC(=O)c3ccc4nnnn4n3)cc2Cl)ccc1C(=O)O)c1ccc(-n2ccnc2)nn1 [Compound 93]
0.01 to 0.1 µM	0.5 to 5 µM	COc1cc(C(=O)O)c(NC(=O)c2ccc3nnnn3n2)cc1OCCCCOc1cc(NC(=O)c2ccc(-n3ccnc3)nn2)c(C(=O)O)cc1F [Compound 95]
0.01 to 0.1 µM	0.05 to 0.5 µM	COc1cc(NC(=O)c2ccc3nnnn3n2)c(C(=O)O)cc1CCCc1cc(NC(=O)c2ccc(-n3ccnc3)nn2)c(C(=O)O)cc1F [Compound 96]
0.1 to 1 µM	0.5 to 5 µM	O=C(Nc1cc(OCCc2cc(NC(=O)c3ccc4nnnn4n3)c(C(=O)O)cc2F)ccc1C(=O)O)c1ccc(-n2ccnc2)nn1 [Compound 97]
0.01 to 0.1 µM	0.05 to 0.5 µM	O=C(Nc1cc(CCCCc2cc(NC(=O)c3ccc4nnnn4n3)c(C(=O)O)cc2F)c(F)cc1C(=O)O)c1ccc(-n2ccnc2)nn1 [Compound 98]
0.1 to 1 µM	0.5 to 5 µM	COc1cc(C(=O)O)c(NC(=O)c2ccc(-n3ccnc3)nn2)cc1CCOc1cc(NC(=O)c2ccc3nnnn3n2)c(C(=O)O)cc1F [Compound 99]
0.1 to 1 µM	0.05 to 0.5 µM	COc1cc(C(=O)O)c(NC(=O)c2ccc3nnnn3n2)cc1CCOc1cc(NC(=O)c2ccc(-n3ccnc3)nn2)c(C(=O)O)cc1F [Compound 100]
0.1 to 1 µM	0.05 to 0.5 µM	COc1cc(NC(=O)c2ccc(-n3ccnc3)nn2)c(C(=O)O)cc1CCCc1cc(NC(=O)c2ccc3nnnn3n2)c(C(=O)O)cc1F [Compound 101]
0.1 to 1 µM	0.5 to 5 µM	COc1cc(C(=O)O)c(NC(=O)c2ccc3nnnn3n2)cc1OCCc1cc(NC(=O)c2ccc(-n3ccnc3)nn2)c(C(=O)O)cc1F [Compound 102]
0.1 to 1 µM	0.5 to 5 µM	COc1cc(NC(=O)c2ccc3nnnn3n2)c(C(=O)O)cc1CCOc1cc(NC(=O)c2ccc(-n3ccnc3)nn2)c(C(=O)O)cc1F [Compound 103]
0.01 to 0.1 µM	0.05 to 0.5 µM	O=C(Nc1cc(CCOc2cc(NC(=O)c3ccc4nnnn4n3)c(C(=O)O)cc2Cl)ccc1C(=O)O)c1ccc(-n2ccnc2)nn1 [Compound 104]
